Test results published in the NIST ThermoML archive (doi:10.1016/j.fluid.2019.05.003).

Assay: xn = mol fraction of the nth substance listed
Conditions: 101 kPa, Liquid; for viscosity: Falling or rolling sphere viscometry; for mass density: Vibrating tube method

CC[n+]1ccccc1.[Br-] [1-ethylpyridinium bromide] + O
Conditions	mass density [kg/m3]	viscosity [mPa·s]
298.15 K, x1 = 0.027	1069.4	1.203
298.15 K, x1 = 0.049	1113.8	1.483
298.15 K, x1 = 0.063	1139.5	1.75
298.15 K, x1 = 0.086	1174.3	2.18
298.15 K, x1 = 0.101	1194.1	2.507
298.15 K, x1 = 0.147	1243.9	3.769
298.15 K, x1 = 0.184	1274.6	5.028
298.15 K, x1 = 0.213	1294.5	6.298
298.15 K, x1 = 0.25	1315.3	8.734
298.15 K, x1 = 0.299	1337	10.5
298.15 K, x1 = 0.341	1352.3	13.33
298.15 K, x1 = 0.401	1370.9	19.65
298.15 K, x1 = 0.451	1381.1	25.82
303.15 K, x1 = 0.027	1067.4	1.071
303.15 K, x1 = 0.049	1111.4	1.339
303.15 K, x1 = 0.063	1137	1.554
303.15 K, x1 = 0.086	1171.6	1.913
303.15 K, x1 = 0.101	1191.2	2.215
303.15 K, x1 = 0.147	1240.8	3.293
303.15 K, x1 = 0.184	1271.3	4.402
303.15 K, x1 = 0.213	1291.1	5.427
303.15 K, x1 = 0.25	1311.9	7.646
303.15 K, x1 = 0.299	1333.6	8.868
303.15 K, x1 = 0.341	1348.8	11.27
303.15 K, x1 = 0.401	1367.4	16.67
303.15 K, x1 = 0.451	1378	21.6
308.15 K, x1 = 0.027	1065.2	0.969
308.15 K, x1 = 0.049	1109	1.207
308.15 K, x1 = 0.063	1134.3	1.393
308.15 K, x1 = 0.086	1168.7	1.728
308.15 K, x1 = 0.101	1188.2	1.966
308.15 K, x1 = 0.147	1237.6	2.911
308.15 K, x1 = 0.184	1268	3.821
308.15 K, x1 = 0.213	1287.7	4.737
308.15 K, x1 = 0.25	1308.5	6.664
308.15 K, x1 = 0.299	1330.2	7.711
308.15 K, x1 = 0.341	1345.4	9.653
308.15 K, x1 = 0.401	1364	14.3
308.15 K, x1 = 0.451	1374.6	18.22
313.15 K, x1 = 0.027	1062.8	0.882
313.15 K, x1 = 0.049	1106.4	1.093
313.15 K, x1 = 0.063	1131.6	1.26
313.15 K, x1 = 0.086	1165.8	1.565
313.15 K, x1 = 0.101	1185.2	1.768
313.15 K, x1 = 0.147	1234.3	2.591
313.15 K, x1 = 0.184	1264.6	3.38
313.15 K, x1 = 0.213	1284.3	4.172
313.15 K, x1 = 0.25	1305	5.814
313.15 K, x1 = 0.299	1326.7	6.713
313.15 K, x1 = 0.341	1341.9	8.366
313.15 K, x1 = 0.401	1360.5	12.27
313.15 K, x1 = 0.451	1371.1	15.47
318.15 K, x1 = 0.027	1061	0.808
318.15 K, x1 = 0.049	1103.7	1.004
318.15 K, x1 = 0.063	1128.8	1.146
318.15 K, x1 = 0.086	1162.8	1.414
318.15 K, x1 = 0.101	1182.1	1.599
318.15 K, x1 = 0.147	1230.9	2.321
318.15 K, x1 = 0.184	1261.3	3.012
318.15 K, x1 = 0.213	1280.9	3.702
318.15 K, x1 = 0.25	1301.6	5.096
318.15 K, x1 = 0.299	1323.3	5.898
318.15 K, x1 = 0.341	1338.5	7.312
318.15 K, x1 = 0.401	1357.1	10.62
318.15 K, x1 = 0.451	1367.7	13.29
323.15 K, x1 = 0.027	–	0.744
323.15 K, x1 = 0.049	–	0.92
323.15 K, x1 = 0.063	–	1.047
323.15 K, x1 = 0.086	–	1.287
323.15 K, x1 = 0.101	–	1.456
323.15 K, x1 = 0.147	–	2.096
323.15 K, x1 = 0.184	–	2.702
323.15 K, x1 = 0.213	–	3.309
323.15 K, x1 = 0.25	–	4.482
323.15 K, x1 = 0.299	–	5.226
323.15 K, x1 = 0.341	–	6.446
323.15 K, x1 = 0.401	–	9.272
323.15 K, x1 = 0.451	–	11.53
